Measured values as given in ChEMBL document CHEMBL4049442, “Design, Synthesis, and Biological Evaluation of Dimorpholine Substituted Thienopyrimidines as Potential Class I PI3K/mTOR Dual Inhibitors” (J Med Chem, 2017).
pIC50: −log10 of the molar value. Active and inactive are the calls of the source. No cut-off for these calls is given here.

Columns and labels:
U-87 MG [1] = test: Antitumor activity against human U87MG cells xenografted in BALB/c nude mouse assessed as tumor growth inhibition administered po for 18 days measured every 3 days during compound dosing; assay type: functional, organism-based; conditions: U-87MG ATCC
[2] = molecular target: PI3-kinase p110-alpha/p85-alpha (Homo sapiens, UniProt P42336); test: Inhibition of full length recombinant human N-terminal His-tagged PI3K p110alpha/p85alpha expressed in baculovirus using PIP2 as substrate after 1 hr by kinase-glo luminescence assay
[3] = molecular target: Serine/threonine-protein kinase mTOR (Homo sapiens, UniProt P42345); test: Inhibition of recombinant human N-terminal FLAG-tagged mTOR (1362 to end residues) expressed in baculovirus infected Sf21 insect cells assessed as reduction in ULight-4E-BP1 phosphorylation after 30 mins by lance ultra assay
[4] = molecular target: Phosphatidylinositol 4,5-bisphosphate 3-kinase catalytic subunit gamma isoform (Homo sapiens, UniProt P48736); test: Inhibition of recombinant human His-tagged PI3K p110gamma expressed in baculovirus using PIP2 as substrate after 1 hr by kinase-glo luminescence assay
Homo sapiens [5] = species: Homo sapiens; test: Inhibition of PI3K in human SKOV3 cells assessed as reduction in Akt phosphorylation at S473 after 24 hrs by Western blot analysis; assay type: cell-based
Homo sapiens [6] = species: Homo sapiens; test: Inhibition of PI3K in human SKOV3 cells assessed as reduction in Akt phosphorylation at T308 after 24 hrs by Western blot analysis; assay type: cell-based
Homo sapiens [7] = species: Homo sapiens; test: Inhibition of PI3K in human SKOV3 cells assessed as reduction in S6 phosphorylation after 24 hrs by Western blot analysis; assay type: cell-based
Homo sapiens [8] = species: Homo sapiens; test: Inhibition of PI3K in human U87MG cells assessed as reduction in Akt phosphorylation at S473 after 24 hrs by Western blot analysis; assay type: cell-based
Homo sapiens [9] = species: Homo sapiens; test: Inhibition of PI3K in human U87MG cells assessed as reduction in Akt phosphorylation at T308 after 24 hrs by Western blot analysis; assay type: cell-based
Homo sapiens [10] = species: Homo sapiens; test: Inhibition of PI3K in human U87MG cells assessed as reduction in S6 phosphorylation after 24 hrs by Western blot analysis; assay type: cell-based
[11] = Clearance in Sprague-Dawley rat at 2 mg/kg, iv by LC-MS/MS analysis; assay type: ADME, organism-based; conditions: in vivo
[12] = Volume of distribution at steady state in Sprague-Dawley rat at 2 mg/kg, iv by LC-MS/MS analysis; assay type: ADME, organism-based; conditions: in vivo, read-out: Vdss
[13] = Cmax in Sprague-Dawley rat at 10 mg/kg, po by LC-MS/MS analysis; assay type: ADME, organism-based; set-up: dose 10 mg/kg, route oral; conditions: in vivo
[14] = AUC in Sprague-Dawley rat at 10 mg/kg, po by LC-MS/MS analysis; assay type: ADME, organism-based; conditions: in vivo
[15] = Oral bioavailability in Sprague-Dawley rat at 10 mg/kg by LC-MS/MS analysis; assay type: ADME, organism-based; conditions: in vivo
SK-OV-3 [16] = test: Antitumor activity against human SKOV3 cells xenografted in BALB/c nude mouse assessed as tumor growth inhibition administered via po for 24 days measured every 3 days during compound dosing; assay type: functional, organism-based
SK-OV-3 [17] = test: Antitumor activity against human SKOV3 cells xenografted in BALB/c nude mouse assessed as tumor growth inhibition at 60 mg/kg/day, po for 24 days measured every 3 days during compound dosing relative to control; assay type: functional; conditions: SK-OV-3, po, read-out: TGI
SK-OV-3 [18] = test: Antitumor activity against human SKOV3 cells xenografted in BALB/c nude mouse assessed as tumor growth inhibition at 30 mg/kg/day, po for 24 days measured every 3 days during compound dosing relative to control; assay type: functional; conditions: SK-OV-3, po, read-out: TGI
SK-OV-3 [19] = test: Antitumor activity against human SKOV3 cells xenografted in BALB/c nude mouse assessed as tumor growth inhibition at 15 mg/kg/day, po for 24 days measured every 3 days during compound dosing relative to control; assay type: functional; conditions: SK-OV-3, po, read-out: TGI
U-87 MG [20] = test: Antitumor activity against human U87MG cells xenografted in BALB/c nude mouse assessed as tumor growth inhibition at 40 mg/kg/day, po for 18 days measured every 3 days during compound dosing relative to control; assay type: functional, U-87MG ATCC; conditions: read-out: TGI
U-87 MG [21] = test: Antitumor activity against human U87MG cells xenografted in BALB/c nude mouse assessed as tumor growth inhibition at 20 mg/kg/day, po for 18 days measured every 3 days during compound dosing relative to control; assay type: functional, U-87MG ATCC; conditions: read-out: TGI
Mus musculus [22] = test: Toxicity in BALB/c nude mouse xenografted with human SKOV3 cells assessed as body weight loss at 15 to 60 mg/kg/day, po for 24 days measured every 3 days during compound dosing; assay type: organism-based; conditions: in vivo
Mus musculus [23] = test: Toxicity in BALB/c nude mouse xenografted with human U87MG cells assessed as body weight loss at 20 to 40 mg/kg/day, po for 18 days measured every 3 days during compound dosing; assay type: organism-based; conditions: in vivo
Mus musculus [24] = test: In vivo inhibition of PI3K in BALB/c nude mouse xenografted with human SKOV3 cells assessed as reduction in Akt phosphorylation at S473 in tumors administered po for 24 days by immunohistochemical analysis; assay type: functional, organism-based
Mus musculus [25] = test: In vivo inhibition of PI3K in BALB/c nude mouse xenografted with human SKOV3 cells assessed as reduction in S6RP phosphorylation at Ser235/236 administered po for 24 days in tumors by immunohistochemical analysis; assay type: functional, organism-based
SK-OV-3 [26] = test: Antitumor activity against human SKOV3 cells xenografted in BALB/c nude mouse assessed as decrease in cell proliferation administered po for 24 days by Ki67 staining based assay; assay type: functional, organism-based
SK-OV-3 [27] = test: Antitumor activity against human SKOV3 cells xenografted in BALB/c nude mouse assessed as TUNEL positive cells at 15 to 60 mg/kg/day, po for 24 days; assay type: functional, organism-based
PC-3 = test: cells; conditions: Homo sapiens, PC-3, 72 h
LNCaP = test: cells; conditions: Homo sapiens, 72 h
U-87 MG [28] = test: cells; conditions: Homo sapiens, 72 h
SK-OV-3 [29] = test: cells; conditions: Homo sapiens, SK-OV-3, 72 h
[30] = Half-life in Sprague-Dawley rat at 2 mg/kg, iv by LC-MS/MS analysis; conditions: in vivo
[31] = molecular target: Phosphatidylinositol 4,5-bisphosphate 3-kinase catalytic subunit beta isoform (Homo sapiens, UniProt P42338); test: Inhibition of PI3Kbeta (unknown origin) using PIP2 as substrate after 1 hr by ADP-Glo luminescence assay
[32] = molecular target: PI3-kinase p110-delta/p85-alpha (Homo sapiens, UniProt O00329); test: Inhibition of recombinant full length human N-terminal His6-tagged PI3K p110delta/p85alpha expressed in baculovirus infected Sf21 cells using PIP2 as substrate after 2 hrs by kinase-glo luminescence assay
PI3-kinase p110-delta/p85-alpha, sequence (P27986 whole entry): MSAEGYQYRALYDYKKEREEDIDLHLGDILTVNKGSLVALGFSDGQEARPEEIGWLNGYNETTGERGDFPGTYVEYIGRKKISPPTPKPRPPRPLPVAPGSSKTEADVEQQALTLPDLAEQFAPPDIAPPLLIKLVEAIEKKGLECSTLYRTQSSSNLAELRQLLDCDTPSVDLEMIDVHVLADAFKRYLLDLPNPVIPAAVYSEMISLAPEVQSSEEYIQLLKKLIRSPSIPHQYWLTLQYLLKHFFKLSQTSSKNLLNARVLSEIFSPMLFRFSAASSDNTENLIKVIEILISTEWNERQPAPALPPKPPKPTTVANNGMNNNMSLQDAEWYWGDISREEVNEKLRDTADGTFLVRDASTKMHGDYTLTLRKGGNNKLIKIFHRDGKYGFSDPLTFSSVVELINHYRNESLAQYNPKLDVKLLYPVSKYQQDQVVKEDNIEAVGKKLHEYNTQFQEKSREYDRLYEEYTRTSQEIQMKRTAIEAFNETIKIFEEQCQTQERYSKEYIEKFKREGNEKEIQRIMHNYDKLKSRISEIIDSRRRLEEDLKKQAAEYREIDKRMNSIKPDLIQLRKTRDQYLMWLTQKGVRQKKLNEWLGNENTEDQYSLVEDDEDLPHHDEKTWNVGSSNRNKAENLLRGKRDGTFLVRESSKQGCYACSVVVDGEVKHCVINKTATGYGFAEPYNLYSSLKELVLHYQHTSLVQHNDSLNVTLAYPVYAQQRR
PI3-kinase p110-delta/p85-alpha, sequence (O00329 whole entry): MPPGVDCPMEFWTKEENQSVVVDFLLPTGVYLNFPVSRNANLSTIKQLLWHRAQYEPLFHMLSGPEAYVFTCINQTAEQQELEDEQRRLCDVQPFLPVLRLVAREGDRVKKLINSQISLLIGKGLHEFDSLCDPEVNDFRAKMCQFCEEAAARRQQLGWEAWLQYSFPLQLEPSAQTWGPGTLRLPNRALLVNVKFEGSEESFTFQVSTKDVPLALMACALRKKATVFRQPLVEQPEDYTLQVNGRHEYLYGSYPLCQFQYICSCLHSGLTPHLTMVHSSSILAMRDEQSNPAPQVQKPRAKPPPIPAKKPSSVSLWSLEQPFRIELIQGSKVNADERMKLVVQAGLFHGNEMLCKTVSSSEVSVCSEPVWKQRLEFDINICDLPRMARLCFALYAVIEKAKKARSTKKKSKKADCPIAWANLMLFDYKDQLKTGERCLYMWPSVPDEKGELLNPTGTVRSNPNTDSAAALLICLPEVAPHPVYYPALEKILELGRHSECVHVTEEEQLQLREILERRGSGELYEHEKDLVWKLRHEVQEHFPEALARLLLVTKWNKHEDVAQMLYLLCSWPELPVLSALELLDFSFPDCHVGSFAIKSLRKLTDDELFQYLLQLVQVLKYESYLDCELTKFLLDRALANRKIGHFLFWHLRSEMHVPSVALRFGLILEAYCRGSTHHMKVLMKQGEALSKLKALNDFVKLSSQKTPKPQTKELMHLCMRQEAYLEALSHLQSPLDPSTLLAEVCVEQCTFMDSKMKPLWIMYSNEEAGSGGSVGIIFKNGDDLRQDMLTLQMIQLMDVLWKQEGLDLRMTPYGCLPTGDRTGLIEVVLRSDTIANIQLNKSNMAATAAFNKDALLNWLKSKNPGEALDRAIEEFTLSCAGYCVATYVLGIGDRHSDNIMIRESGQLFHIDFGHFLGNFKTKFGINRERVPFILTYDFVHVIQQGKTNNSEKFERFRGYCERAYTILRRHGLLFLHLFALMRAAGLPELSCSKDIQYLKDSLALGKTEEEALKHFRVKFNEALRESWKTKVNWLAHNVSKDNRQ

PI3-kinase p110-alpha/p85-alpha, sequence (P27986 whole entry): as the sequence (P27986 whole entry) above
PI3-kinase p110-alpha/p85-alpha, sequence (P42336 whole entry): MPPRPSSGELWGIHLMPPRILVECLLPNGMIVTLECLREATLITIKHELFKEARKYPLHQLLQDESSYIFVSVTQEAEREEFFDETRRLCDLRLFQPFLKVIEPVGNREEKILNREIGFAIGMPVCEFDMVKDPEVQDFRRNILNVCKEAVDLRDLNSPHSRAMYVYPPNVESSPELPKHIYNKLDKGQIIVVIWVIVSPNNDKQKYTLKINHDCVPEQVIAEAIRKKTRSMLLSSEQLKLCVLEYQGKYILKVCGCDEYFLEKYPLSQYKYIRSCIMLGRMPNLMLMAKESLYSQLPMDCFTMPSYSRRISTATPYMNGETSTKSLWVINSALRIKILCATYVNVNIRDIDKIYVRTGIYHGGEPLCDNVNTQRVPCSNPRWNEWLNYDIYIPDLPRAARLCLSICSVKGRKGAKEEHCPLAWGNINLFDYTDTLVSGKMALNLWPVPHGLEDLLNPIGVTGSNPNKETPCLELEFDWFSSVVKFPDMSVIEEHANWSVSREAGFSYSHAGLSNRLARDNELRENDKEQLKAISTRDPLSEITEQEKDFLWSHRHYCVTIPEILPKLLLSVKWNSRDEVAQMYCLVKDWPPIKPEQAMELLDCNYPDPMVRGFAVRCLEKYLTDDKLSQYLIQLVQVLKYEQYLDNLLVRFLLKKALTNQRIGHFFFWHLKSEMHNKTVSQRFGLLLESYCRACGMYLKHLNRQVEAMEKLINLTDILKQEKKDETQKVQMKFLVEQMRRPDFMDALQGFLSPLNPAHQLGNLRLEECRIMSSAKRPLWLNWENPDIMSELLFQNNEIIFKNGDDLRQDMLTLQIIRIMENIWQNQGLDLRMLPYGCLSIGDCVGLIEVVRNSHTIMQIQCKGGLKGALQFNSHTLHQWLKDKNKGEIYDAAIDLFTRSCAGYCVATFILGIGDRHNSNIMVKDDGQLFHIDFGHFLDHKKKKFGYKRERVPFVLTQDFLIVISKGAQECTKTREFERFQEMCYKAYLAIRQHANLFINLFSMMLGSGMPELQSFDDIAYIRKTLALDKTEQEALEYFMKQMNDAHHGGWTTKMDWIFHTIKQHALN
Phosphatidylinositol 4,5-bisphosphate 3-kinase catalytic subunit gamma isoform, sequence (P48736 whole entry, canonical isoform): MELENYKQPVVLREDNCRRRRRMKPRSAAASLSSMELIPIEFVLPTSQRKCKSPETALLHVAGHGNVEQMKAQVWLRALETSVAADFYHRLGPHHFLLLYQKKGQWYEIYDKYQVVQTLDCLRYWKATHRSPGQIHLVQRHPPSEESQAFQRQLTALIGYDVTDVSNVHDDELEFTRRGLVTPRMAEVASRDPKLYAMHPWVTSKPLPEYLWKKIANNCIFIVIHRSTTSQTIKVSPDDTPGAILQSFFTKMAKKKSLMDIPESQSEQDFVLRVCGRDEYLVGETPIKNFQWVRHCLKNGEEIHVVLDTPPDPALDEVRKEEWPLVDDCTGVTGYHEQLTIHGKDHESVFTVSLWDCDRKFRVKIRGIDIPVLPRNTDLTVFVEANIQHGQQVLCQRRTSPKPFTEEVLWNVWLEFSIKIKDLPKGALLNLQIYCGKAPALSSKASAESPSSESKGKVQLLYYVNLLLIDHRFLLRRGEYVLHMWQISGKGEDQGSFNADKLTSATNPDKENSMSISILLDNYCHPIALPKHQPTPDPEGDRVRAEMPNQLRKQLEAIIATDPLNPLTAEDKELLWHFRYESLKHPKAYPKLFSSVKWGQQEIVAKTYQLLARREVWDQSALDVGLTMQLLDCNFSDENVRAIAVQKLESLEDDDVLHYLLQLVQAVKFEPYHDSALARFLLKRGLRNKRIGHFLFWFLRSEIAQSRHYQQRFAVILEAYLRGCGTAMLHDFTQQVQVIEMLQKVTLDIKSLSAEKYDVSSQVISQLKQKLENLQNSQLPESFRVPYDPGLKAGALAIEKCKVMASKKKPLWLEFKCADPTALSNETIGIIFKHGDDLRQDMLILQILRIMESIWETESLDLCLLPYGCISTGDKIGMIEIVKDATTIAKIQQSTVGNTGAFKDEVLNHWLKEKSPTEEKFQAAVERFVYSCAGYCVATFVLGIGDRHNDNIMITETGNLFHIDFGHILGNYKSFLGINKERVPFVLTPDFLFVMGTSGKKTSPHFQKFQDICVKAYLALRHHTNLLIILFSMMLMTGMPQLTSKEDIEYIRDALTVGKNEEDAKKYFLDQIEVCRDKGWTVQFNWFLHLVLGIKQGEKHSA
Phosphatidylinositol 4,5-bisphosphate 3-kinase catalytic subunit beta isoform, sequence (P42338 whole entry, canonical isoform): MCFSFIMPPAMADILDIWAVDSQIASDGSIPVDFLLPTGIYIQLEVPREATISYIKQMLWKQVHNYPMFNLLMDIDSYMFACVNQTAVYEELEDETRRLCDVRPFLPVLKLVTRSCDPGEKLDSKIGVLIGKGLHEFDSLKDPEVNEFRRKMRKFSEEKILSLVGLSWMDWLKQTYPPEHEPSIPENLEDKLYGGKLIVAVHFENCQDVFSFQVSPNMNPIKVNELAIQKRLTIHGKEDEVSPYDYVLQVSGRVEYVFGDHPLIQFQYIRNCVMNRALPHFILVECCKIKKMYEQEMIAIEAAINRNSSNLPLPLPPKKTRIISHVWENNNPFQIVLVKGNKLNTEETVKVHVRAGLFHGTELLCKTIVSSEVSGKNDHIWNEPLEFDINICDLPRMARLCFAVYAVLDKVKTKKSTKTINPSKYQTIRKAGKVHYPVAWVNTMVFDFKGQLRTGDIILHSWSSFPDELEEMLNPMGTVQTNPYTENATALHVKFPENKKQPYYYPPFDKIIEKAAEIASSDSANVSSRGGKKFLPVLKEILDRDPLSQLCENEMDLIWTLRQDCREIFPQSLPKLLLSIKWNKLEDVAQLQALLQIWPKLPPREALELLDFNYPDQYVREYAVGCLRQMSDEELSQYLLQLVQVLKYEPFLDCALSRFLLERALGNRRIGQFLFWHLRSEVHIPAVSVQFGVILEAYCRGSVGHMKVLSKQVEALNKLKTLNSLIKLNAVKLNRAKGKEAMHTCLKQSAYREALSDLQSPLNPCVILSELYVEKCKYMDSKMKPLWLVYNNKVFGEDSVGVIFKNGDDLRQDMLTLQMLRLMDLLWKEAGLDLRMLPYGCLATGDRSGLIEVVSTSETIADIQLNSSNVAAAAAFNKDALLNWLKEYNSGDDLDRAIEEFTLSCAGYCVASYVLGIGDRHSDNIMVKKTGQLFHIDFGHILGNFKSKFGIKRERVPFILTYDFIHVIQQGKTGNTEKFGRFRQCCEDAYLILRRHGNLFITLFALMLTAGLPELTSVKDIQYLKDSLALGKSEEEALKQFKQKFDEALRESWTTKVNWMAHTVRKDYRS

pIC50 [2]: 7.82 | pIC50 [3]: 7.80 | pIC50 [4]: 7.12 | clearance [11]: 29 mL/min/kg | Vd [12]: 4.4 L/kg | Cmax [13]: 1400 nM | AUC [14]: 5.2 µM·h | bioavailability [15]: 41% | pIC50 (PC-3): 6.35 | pIC50 (LNCaP): 6.68 | pIC50 (U-87 MG [28]): 6.37 | pIC50 (SK-OV-3 [29]): 6.30 | half-life [30]: 90 min | pIC50 [31]: 6.76 | pIC50 [32]: 8.00
Structure (SMILES): C[C@@H]1CN(c2nc(N3CCOCC3)c3sc(-c4ccn[nH]4)cc3n2)C[C@H](C)O1
TGI (U-87 MG [1]): Dose-dependent effect | inhibition (Homo sapiens [5]): Dose-dependent effect | inhibition (Homo sapiens [6]): Dose-dependent effect | inhibition (Homo sapiens [7]): Dose-dependent effect | inhibition (Homo sapiens [8]): Dose-dependent effect | inhibition (Homo sapiens [9]): Dose-dependent effect | inhibition (Homo sapiens [10]): Dose-dependent effect | TGI (SK-OV-3 [16]): Dose-dependent effect | inhibition in vivo at 60 mg/kg/day (SK-OV-3 [17]): 89.6% | inhibition in vivo at 30 mg/kg/day (SK-OV-3 [18]): 75.9% | inhibition in vivo at 15 mg/kg/day (SK-OV-3 [19]): 48.5% | inhibition in vivo at 40 mg/kg/day (U-87 MG [20]): 81.2% | inhibition in vivo at 20 mg/kg/day (U-87 MG [21]): 69.2% | Activity (Mus musculus [22]): Non-Toxic | Activity (Mus musculus [23]): Non-Toxic | inhibition (Mus musculus [24]): Dose-dependent effect | inhibition (Mus musculus [25]): Dose-dependent effect | Activity (SK-OV-3 [26]): Dose-dependent effect | Activity (SK-OV-3 [27]): Active
